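Step 1: Grow cells in 96-well plates. Step 2: Expose to compound for 48 hours at 5 concentrations. Step 3: Interpolate endpoints linearly; if unreached, use highest concentration. GI50: concentration for 50% inhibition of growth. TGI denotes the concentration required for complete inhibition of growth.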
Key:
Assay in all cases: DTP human tumour cell line panel, 48 h
786-0 renal = test system: 786-0 renal
CAKI-1 renal = test system: CAKI-1 renal
EKVX NSCLC = test system: EKVX NSCLC
HCC-2998 colon = test system: HCC-2998 colon
HOP-92 NSCLC = test system: HOP-92 NSCLC
LOX IMVI melanoma = test system: LOX IMVI melanoma
OVCAR-5 ovarian = test system: OVCAR-5 ovarian
SK-MEL-28 melanoma = test system: SK-MEL-28 melanoma
SK-OV-3 ovarian = test system: SK-OV-3 ovarian
SR leukemia = test system: SR leukemia

Compound | GI50 (786-0 renal) [µM] | TGI (786-0 renal) [µM] | GI50 (CAKI-1 renal) [µM] | TGI (CAKI-1 renal) [µM] | GI50 (EKVX NSCLC) [µM] | TGI (EKVX NSCLC) [µM] | GI50 (HCC-2998 colon) [µM] | TGI (HCC-2998 colon) [µM] | GI50 (HOP-92 NSCLC) [µM] | TGI (HOP-92 NSCLC) [µM] | GI50 (LOX IMVI melanoma) [µM] | TGI (LOX IMVI melanoma) [µM] | GI50 (OVCAR-5 ovarian) [µM] | TGI (OVCAR-5 ovarian) [µM] | GI50 (SK-MEL-28 melanoma) [µM] | TGI (SK-MEL-28 melanoma) [µM] | GI50 (SK-OV-3 ovarian) [µM] | TGI (SK-OV-3 ovarian) [µM] | TGI (SR leukemia) [µM] | GI50 (SR leukemia) [µM]
C=CCCCC(O)c1ccc(C(O)c2cnc3ccccc3c2)o1 (centres undefined) | 39.8 | > 100 | 31.4 | 98.4 | 19.2 | > 100 | 19 | 51.4 | 60.1 | > 100 | 17.1 | 33.8 | 24.4 | 76.8 | 69.1 | > 100 | > 100 | > 100 | – | –
CC(=O)Nc1ccc(Cc2ccc3[nH]c(=O)cc(C)c3c2)cc1 | – | 98.2 | – | > 100 | – | > 100 | – | – | – | > 100 | – | > 100 | – | > 100 | – | > 100 | – | > 100 | > 100 | –
Cc1nc2cc(Nc3nc(Nc4ccc(F)cc4)nc(N4CCCC4)n3)ccc2n1Cc1ccccc1 | 1.85 | 3.46 | – | – | – | – | 1.93 | 3.73 | 1.07 | 2.47 | 1.84 | 3.36 | 1.72 | 3.42 | 1.88 | 3.92 | 2.18 | 5.2 | – | –
Clc1ccc(Nc2ncnc3c2sc2ncccc23)c(Cl)c1 | < 0.01 | > 100 | < 0.0107 | > 33.9 | 0.0826 | > 100 | – | – | 0.0632 | 21.6 | 0.0214 | > 100 | 0.0576 | > 100 | 6.39 | > 100 | 0.137 | > 100 | > 100 | < 0.0187
O=C(CC1(O)C(=O)Nc2ccc([N+](=O)[O-])cc21)c1ccc(Br)cc1 (centres undefined) | – | > 100 | – | – | – | > 100 | – | > 100 | – | – | – | > 100 | – | > 100 | – | > 100 | – | > 100 | – | –
C=C(C)[C@@H]1CC[C@]2(C(=O)N3CCN(C)CC3)CC[C@]3(C)[C@H](CC[C@@H]4[C@@]5(C)CC[C@H](O)C(C)(C)[C@@H]5CC[C@]43C)[C@@H]12 | 1.49 | 3.17 | 1.59 | 3.05 | 1.92 | 4.12 | 1.91 | 3.59 | 1.69 | 3.42 | 1.87 | 3.74 | 1.75 | 3.28 | 1.8 | 3.48 | 1.84 | 3.35 | – | –
Oc1[nH]c2ccccc2c1/C=c1/ccc2c(c1)N=C(c1cc(F)cc(F)c1)N=2 | 10 | 22 | 2.47 | 15.1 | 2.63 | 17.5 | 5.65 | 20.7 | – | – | 3.94 | 18.9 | 16.8 | 36.4 | 7.24 | 20.2 | 14.2 | 29 | 9.21 | 2.43
O=c1[nH]c(-c2ccc([N+](=O)[O-])cc2)nc2ccc(Cl)cc12 | – | > 100 | – | – | – | > 100 | – | > 100 | – | 84.2 | – | – | – | > 100 | – | > 100 | – | > 100 | – | –
NNc1ncnc2cccc(Cl)c12 | – | > 100 | – | > 100 | – | 32 | – | > 100 | – | – | – | – | – | > 100 | – | > 100 | – | > 100 | > 100 | –
C1=CC(=NN=P(c2ccccc2)(c2ccccc2)c2ccccc2)C=C1 | – | > 100 | – | > 100 | – | > 100 | – | > 100 | – | > 100 | – | > 100 | – | > 100 | – | > 100 | – | > 100 | – | –
C/C(CC(=O)Nc1ccc([N+](=O)[O-])cc1)=N\Nc1ccc([N+](=O)[O-])cc1[N+](=O)[O-] | – | > 100 | – | – | – | > 100 | – | 65.4 | – | > 100 | – | > 100 | – | > 100 | – | > 100 | – | > 100 | – | –
COc1ccc(Nc2ncccc2C(=O)NCc2cn(Cc3cccc(Oc4ccccc4)c3)nn2)c(OC)c1 | 3.92 | > 100 | 1.26 | > 100 | 9.61 | > 100 | 2.64 | > 29 | 36.1 | > 100 | 2.54 | > 100 | 6.72 | > 100 | 5.27 | > 100 | 2.13 | > 30.1 | – | –
COc1cc2oc(-c3ccc(O)cc3)cc(=O)c2c(OC)c1O | – | > 100 | – | > 100 | – | > 100 | – | > 100 | – | > 100 | – | > 100 | – | > 100 | – | > 100 | – | > 100 | – | –
Cc1cc(N(CCC#N)CCC#N)ccc1CC1N=C(c2ccccc2)OC1=O (centres undefined) | – | > 100 | – | > 100 | – | > 100 | – | > 100 | – | > 100 | – | > 100 | – | > 100 | – | > 100 | – | > 100 | – | –
CCOC(=O)Nc1cc(-c2ccc(C)c(NS(C)(=O)=O)c2)nn2c(C)nnc12 | 2.64 | > 100 | 0.537 | 23.6 | – | – | 1.59 | 3.37 | – | – | – | – | 2.64 | 31.3 | 2.69 | > 100 | 1.21 | 5.66 | > 100 | 0.643
CCOC(=O)Cn1c(=O)[nH]c(=O)c2[nH]cnc21 | – | > 100 | – | – | – | > 100 | – | > 100 | – | – | – | > 100 | – | > 100 | – | > 100 | – | > 100 | > 100 | –
CSCC(COC(C)=O)(CSC)c1ccncc1 | – | > 100 | – | > 100 | – | > 100 | – | > 100 | – | – | – | > 100 | – | – | – | > 100 | – | > 100 | > 100 | –
O=C(CC(=O)N1N=C(c2ccccc2)C(N=Nc2ccccc2Cl)C1=O)Nc1ccccc1Cl (centres undefined) | – | 49.6 | – | > 100 | – | > 100 | – | > 100 | – | – | – | > 100 | – | > 100 | – | > 100 | – | > 100 | 54.5 | –
